In patent US20150184144A1, “Liquid Enzyme Composition and Method for Enzyme Recovery” (Novozymes A/S, priority 2012, published 2015):

System: Lactobacillus (L. buchneri and L. para paracasei)
Test: Challenge screening of liquid enzyme formulations inoculated with Lactobacillus, viable cells (CFU)
Type: cell-based
Conditions: for CFU/ml After 1 week / CFU/ml After 2 weeks: 20-25° C.
Procedure: The antimicrobial effect may be determined by analyzing viable cells (CFU) of the liquid formulation after inoculating with Lactobacillus and incubating for 1-2 weeks at 20-25° C. and comparing with a similar liquid composition without the fatty acid or salt.
Challenge screening was performed by inoculating with 10^5-10^6 CFU/ml of Lactobacillus (L. buchneri and L. para paracasei), incubating for two weeks at 20-25° C., and analyzing viable cells (CFU) before and after inoculation and after 1 and 2 weeks.
The results are shown as CFU/ml (detection limit 100): […]

[1] = Example 5: 0.3% w/w inhibitor in glucoamylase formulation, pH 4.7
[2] = Example 5: glucoamylase (mixture of two variants) formulation, 48% w/w solids, pH 4.7, 0.3% w/w Na-octanoate or sodium benzoate instead, with or without 0.3% Na acetate trihydrate
[3] = Example 5: glucoamylase formulation, pH 4.7, 0.3% w/w Na-octanoate or sodium benzoate instead, with or without 0.3% Na acetate trihydrate
[4] = Example 1: Talaromyces glucoamylase formulation, 0.5% w/w Na-hexanoate, pH 5.0, detection limit 100

Structure (SMILES): O=C([O-])c1ccccc1.[Na+] [Benzoate, sodium benzoate, reference compound]
- antimicrobial effect against Lactobacillus (in words) [1]: not effective
- CFU/ml Before inoculation [2]: ≦100 CFU/ml
- CFU/ml After inoculation [3]: 170000 CFU/ml
- CFU/ml After 1 week [3]: 150000 CFU/ml
- CFU/ml After 2 weeks [3]: 120000 CFU/ml

Structure (SMILES): CCCCCC(=O)[O-].[Na+] [Na-hexanoate]
- antimicrobial effect against Lactobacillus (in words) (Example 1: 0.5% w/w Na-hexanoate in glucoamylase formulation, pH 5.0): antimicrobial (germicidal) effect
- CFU/ml After 1 week [4]: ≦100 CFU/ml
- CFU/ml After 2 weeks [4]: ≦100 CFU/ml
- CFU/ml After inoculation (Example 1: Talaromyces glucoamylase formulation, 0.5% w/w Na-hexanoate, pH 5.0, inoculated with 10^5-10^6 CFU/ml): 180000 CFU/ml
- CFU/ml Before inoculation (Example 1: Talaromyces glucoamylase formulation, 43% w/w solids (glucose), 0.5% w/w Na-hexanoate, pH 5.0, detection limit 100): ≦100 CFU/ml
- antimicrobial effect against Lactobacillus (in words) (Example 2: 0.5% w/w Na-hexanoate in xylanase and cellulase formulation, pH 4.6): antimicrobial (germicidal) effect
- antimicrobial effect against Lactobacillus (in words) (Example 3: 0.5% w/w Na-hexanoate in cellulase and xylanase formulation, pH 4.55): antimicrobial (germicidal) effect

Structure (SMILES): CCCCCCCC(=O)[O-].[Na+] [Octanoate, Na-Caprylate (Na-octanoate)]
- antimicrobial effect against Lactobacillus (in words) (Example 4: 0.5% w/w Na-octanoate in glucoamylase formulation, pH 5.0, compared with formate+sorbate+propionate): strong antimicrobial (germicidal) effect
- antimicrobial effect against Lactobacillus (in words) [1]: strong antimicrobial (germicidal) effect
- CFU/ml Before inoculation [2]: ≦100 CFU/ml
- CFU/ml After inoculation [3]: 170000 CFU/ml
- CFU/ml After 1 week [3]: ≦100 CFU/ml
- CFU/ml After 2 weeks [3]: ≦100 CFU/ml

Structure (SMILES): CC(=O)[O-].O.O.O.[Na+] [acetate, Na acetate trihydrate, reference compound]
- antimicrobial effect against Lactobacillus (in words) [1]: not effective
